Measurements taken from patent EP0199302A2, “Contraception in dogs with luteinizing hormone releasing hormone antagonists” (SYNTEX (U.S.A.) INC., priority 1985, dated 1986).

How the values were obtained:
bitch = experiment: Plasma progesterone and pregnancy outcome in a bitch given daily subcutaneous injections for 7 days (Example 1); type: in vivo, dogs
Text: A bitch was bled and the plasma progesterone measured in nanograms per milliliter versus the day of diestrus. The bitch was bled on day -8 and day -4. The plasma progesterone was 4 to 6 nanograms per milliliter on those two days. At day 1, the plasma progesterone was at 30 nanograms per milliliter and peaked at about 60 on day 9 slowly decreasing to about 30 on day 25. At day 25 the bitch started to receive daily subcutaneous 1 2 3 injections of [N-Ac-D-Nal(2) , D-p-Cl-Phe , D-Trp , D-Deh , D-Ala ] LHRH for 7 days. After the first injection the plasma progesterone level immediately dropped to 4 nanograms per milliliter. At the end of the course of treatment, the level of plasma progesterone was down below 1 nanogram per milliliter. A fetus was expelled the 5th day of treatment and a tissue mass was expelled on day 49, which was 24 days after the start of treatment.

pregnant beagle bitches = experiment: Effect of time of dosing with two LHRH antagonists on pregnancy in bitches (Example 2, Table 1); type: in vivo, dogs; conditions: daily injection for seven days, 300 µg/kg/day
Protocol: Several pregnant beagle bitches were treated with one of two different LHRH antagonists by subcutaneous injection.

beagle bitch [1] = experiment: Single subcutaneous injection in a pregnant beagle bitch: plasma progesterone and abortion (Example 3); type: in vivo, dogs; conditions: single subcutaneous injection of 50 mg on the twenty-ninth day of pregnancy
Protocol: A beagle bitch was bred and confirmed to be pregnant by manual palpation of the uterus during the fourth week of gestation. On the twenty-ninth day of pregnancy […] was administered a single subcutaneous injection of an aqueous solution of 50 mg of [N-Ac-D-Nal(2) , D-p-C1-Phe, D-Trp , D-Deh , D-Ala ]LHRH. Immediately before injection the plasma progesterone levels was 19ng/ml and by 24 hours after injection this had declined to 3.3 ng/ml. Plasma levels of progesterone varied thereafter from day to day but were never above 6 ng/ml. Delivery of an abortus was noted on the 36th day of pregnancy.

beagle bitch [2] = experiment: Termination of estrus in a beagle bitch (Example 4); type: in vivo, dogs; conditions: 300 µg/kg/day for 14 days started on day 2 (entering estrus)
Protocol: A beagle bitch was identified with a slight sanguineous vaginal discharge (day 1 of the experiment). Microscopic evaluation of vaginal cytology confirmed the bitch to be in proestrus. […] She was immediately started on a course of treatment of 300 µg/kg/day for 14 days of [N-Ac-D-Nal(2) , D-p-Cl-Phe , D-Trp , D-Deh ,D-Ala ]LHRH.
The vaginal discharge diminished and was last noted on day 5. By day 6 the bitch was confirmed by vaginal cytology to have reentered diestrus.

pregnant cats = experiment: Seven-day subcutaneous minipump infusion in pregnant cats: plasma progesterone and pregnancy (Example 5); type: in vivo; conditions: for Plasma level of progesterone: 300 μg/kg/day for seven days
Protocol: Female cats were bred and 15-18 days later were implanted subcutaneously with an Alzet^8 minipump filled with a solution of [N-Ac-D-Nal(2) , D-p-Cl-Phe , D-Trp , D-Deh ,D-Ala ]LHRH in propylene glycol at a concentration sufficient to deliver 300 µg/kg/day. The pumps were removed after seven days. No effect of treatment on circulating levels of progesterone could be discerned in daily plasma samples.

## N-Ac-D-Nal(2)-D-pCL-Phe-D-Trp-Ser-Tyr-D-Deh-Leu-Arg-ProD-Ala
bitch; bitch, daily subcutaneous injections for 7 days starting day 25 of diestrus
  level of plasma progesterone at the end of the course of treatment: below 1 nanogram per milliliter
bitch; bitch, daily subcutaneous injections for 7 days starting day 25 of diestrus, about 30 on day 25 before treatment
  plasma progesterone level after the first injection: 4 nanograms per milliliter
bitch; day of diestrus, 24 days after the start of treatment
  tissue mass expelled, day: 49
Pregnant beagle bitches; dog 1, treatment on days 36-42 of pregnancy
  COMMENT (pregnancy outcome): Aborted on days 39-41 of pregnancy
Pregnant beagle bitches; dog 2, treatment on days 32-38 of pregnancy
  COMMENT (pregnancy outcome): Aborted on day 35 of pregnancy
Beagle bitch [1]; 19ng/ml immediately before injection
  plasma progesterone level 24 hours after injection: 3.3 ng/mL
Beagle bitch [1]; later than 24 hours, varied from day to day
  plasma levels of progesterone thereafter: ≤ 6 ng/mL
Beagle bitch [2]
  attractiveness to stud males: not attractive to stud males
  reentered diestrus confirmed by vaginal cytology, day of the experiment: ≤ 6
  sexual receptivity: no sign of sexual receptivity
  vaginal discharge last noted, day of the experiment: 5
Pregnant cats; Cat 1, day 0 from treatment
  Plasma level of progesterone: 4.0 ng/mL
Pregnant cats; Cat 1, day 1 from treatment
  Plasma level of progesterone: 2.7 ng/mL
Pregnant cats; Cat 1, day 2 from treatment
  Plasma level of progesterone: 4.3 ng/mL
Pregnant cats; Cat 1, day 3 from treatment
  Plasma level of progesterone: 4.0 ng/mL
Pregnant cats; Cat 1, day 4 from treatment
  Plasma level of progesterone: 4.4 ng/mL
Pregnant cats; Cat 1, day 5 from treatment
  Plasma level of progesterone: 3.8 ng/mL
Pregnant cats; Cat 1, day 6 from treatment
  Plasma level of progesterone: 5.7 ng/mL
Pregnant cats; Cat 1, day 7 from treatment
  Plasma level of progesterone: 3.3 ng/mL
Pregnant cats; Cat 1, day 8 from treatment
  Plasma level of progesterone: 6.5 ng/mL
Pregnant cats; Cat 1, day 9 from treatment
  Plasma level of progesterone: 6.7 ng/mL
Pregnant cats; Cat 1, day 10 from treatment
  Plasma level of progesterone: 5.2 ng/mL
Pregnant cats; Cat 1, day -1 from treatment (before treatment)
  Plasma level of progesterone: 2.0 ng/mL
Pregnant cats; Cat 1, day -2 from treatment (before treatment)
  Plasma level of progesterone: 4.5 ng/mL
Pregnant cats; Cat 2, day 0 from treatment
  Plasma level of progesterone: 2.3 ng/mL
Pregnant cats; Cat 2, day 1 from treatment
  Plasma level of progesterone: 4.1 ng/mL
Pregnant cats; Cat 2, day 2 from treatment
  Plasma level of progesterone: 5.2 ng/mL
Pregnant cats; Cat 2, day 3 from treatment
  Plasma level of progesterone: 3.9 ng/mL
Pregnant cats; Cat 2, day 4 from treatment
  Plasma level of progesterone: 4.2 ng/mL
Pregnant cats; Cat 2, day 5 from treatment
  Plasma level of progesterone: 4.2 ng/mL
Pregnant cats; Cat 2, day 6 from treatment
  Plasma level of progesterone: 6.3 ng/mL
Pregnant cats; Cat 2, day 7 from treatment
  Plasma level of progesterone: 5.5 ng/mL
Pregnant cats; Cat 2, day 8 from treatment
  Plasma level of progesterone: 6.1 ng/mL
Pregnant cats; Cat 2, day 9 from treatment
  Plasma level of progesterone: 7.3 ng/mL
Pregnant cats; Cat 2, day 10 from treatment
  Plasma level of progesterone: 6.7 ng/mL
Pregnant cats; Cat 2, day -1 from treatment (before treatment)
  Plasma level of progesterone: 3.0 ng/mL
Pregnant cats; Cat 2, day -2 from treatment (before treatment)
  Plasma level of progesterone: 4.3 ng/mL
Pregnant cats; cats implanted 15-18 days after breeding, minipump 300 µg/kg/day for seven days
  pregnancy outcome: All treated cats continued to normal uneventful term delivery
Pregnant cats; cats implanted 15-18 days after breeding, minipump 300 µg/kg/day for seven days, daily plasma samples
  effect of treatment on circulating levels of progesterone: No effect
